Reference: patent US20240117402A1, “METHODS FOR (POLY) PEPTIDE TANDEM LIGATION AND CYCLIZATION” (Nanyang Technological University, priority 2021, published 2024)
Where no end group is shown, it is not given here.

Columns and labels:
VyPAL2 [1] = assay: VyPAL2-mediated intermolecular peptide ligation kinetics (HPLC); type: biochemical, Viola yedoensis; settings: for Km / kcat: VyPAL2, limiting substrate 50-800 μM; for Km: partner peptide constant; for kcat: partner peptide constant (1 with 2 at 1 mM; 5 with 4 at 1.5 mM; 7 with 2 at 1.5 mM); for catalytic activity/efficiency of VyPAL2 relative to butelase-1 towards the substrate: intermolecular ligation
Chain of VyPAL2 (as listed by the source): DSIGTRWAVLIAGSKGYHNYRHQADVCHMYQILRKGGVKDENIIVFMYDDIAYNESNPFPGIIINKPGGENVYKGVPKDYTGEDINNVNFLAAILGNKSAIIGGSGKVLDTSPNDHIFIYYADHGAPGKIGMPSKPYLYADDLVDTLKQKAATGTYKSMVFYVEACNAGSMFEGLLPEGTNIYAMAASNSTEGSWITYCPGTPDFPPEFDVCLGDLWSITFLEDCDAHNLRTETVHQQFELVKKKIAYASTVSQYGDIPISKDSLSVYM
Chain of butelase-1 (as listed by the source): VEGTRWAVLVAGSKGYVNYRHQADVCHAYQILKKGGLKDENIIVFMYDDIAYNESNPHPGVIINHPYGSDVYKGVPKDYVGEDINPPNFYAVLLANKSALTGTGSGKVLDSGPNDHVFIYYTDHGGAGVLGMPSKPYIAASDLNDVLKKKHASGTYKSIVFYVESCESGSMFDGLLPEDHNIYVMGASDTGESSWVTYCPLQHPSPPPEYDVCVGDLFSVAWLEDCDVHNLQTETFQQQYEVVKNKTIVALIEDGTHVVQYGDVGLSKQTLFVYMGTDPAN
Protocol: (§1) FIG. 3. Kinetic studies on VyPAL2- and butelase 1-catalyzed intermolecular ligations. A) Peptide 1 (SEQ ID NO:7) containing the C-terminal NHV sequence was used at varying concentrations (50 — 800 μM) to react with peptide 2 (SEQ ID NO:8) at constant concentration (1 mM); B) Peptide 4 (SEQ ID NO:9) at a constant concentration (1.5 mM) was reacted with the GF-peptide 5 (SEQ ID NO:10) at varying concentrations (50-800 μM). C) Peptide 2 at a constant concentration (1.5 mM) was reacted with the -NGF peptide 7 (SEQ ID NO:11) at varying concentrations (50-800 μM). The ligation product 3 or 6 was confirmed by ESI-MS. The reaction rates were calculated from the consumption of the limiting substrate 1, 5 or 7. Initial rate (V0) at different concentrations of the limiting substrate were used for Michaelis-Menten curve plotting. For each kinetic calculation, a lineweaver-Burk plot was also used to confirm the analysis.
(§2) PAL enzymes have been used extensively for protein single-site labeling and macrocyclization. However, using two PALs of different substrate specificity for bio-orthogonal and dual ligation remains unexplored. […] To determine the differences quantitatively, firstly the kinetics of VyPAL2 and butelase-1 toward peptide 1 or 7 which has a C-terminal NHV or NGF tripeptide motif respectively were studied (Table 1). The nucleophile substrate, used at a constant concentration, was peptide 2 which contains an N-terminal GI dipeptide motif. Reverse-phase analytical HPLC was used to monitor and quantify the ligation reaction. […] Similarly, kinetics of the two ligases towards a GF-starting nucleophile substrate, peptide 5, were also examined.
(§3) In this case, the acyl substrate, now kept at a constant concentration for the kinetic study, was peptide 4 which contains NGL at the C-terminus, a favorable motif for both VyPAL2 and butelase-1. It was shown that VyPAL2 has 5-fold catalytic efficiency than butelase-1 towards the GF-peptide substrate 5 (Table 1 and FIG. 3). In summary, the kinetic studies confirm the differential activities of butelase-1 and VyPAL2 toward certain substrate sequences, which provide strong support for a two-PAL, bio-orthogonal tandem ligation scheme for protein dual labeling.

butelase-1 [2] = assay: Butelase-1-mediated intermolecular peptide ligation kinetics (HPLC); type: biochemical; settings: for Km / kcat: Butelase-1, limiting substrate 50-800 μM, partner peptide constant
Protocol: as §1, §2, §3

butelase-1 [3] = assay: Butelase-1-catalyzed peptide cyclization (substrate screen, pH scan, kinetics); type: biochemical
Protocol: (§4) FIG. 9. Screening of P1′-Asp peptides for cyclization by A) VyPAL2, B) butelase-1 and C) OaAEP1b. Quantitative summary of reaction yields of the reaction mixtures. For each reaction, 25 nM of the enzyme and 5 μM of the peptide substrate (21a-21i) were mixed and reacted at pH 4.5, 25° C. for 60 min. The positive control peptide 21j was performed at the same conditions except at pH 7.4. Average yields and SDs were calculated from experiments performed in triplicate. The amino acid sequence of the peptides used are set forth in SEQ ID Nos. 15-24.
(§5) FIG. 10. Ligation activity of three different ligases under different pH and substrate. Cyclization activity of A) VyPAL2, B) Butelase-1 or C) OaAEP1b towards substrate 21e-DSL and 21j-NGL; Fold difference was calculated using the cyclization rate of 21j-NGL divided by that of 21e-DSL. All the results were the average reaction rate at different pH in triplicate experiments based on MALDI-TOF analysis. Light grey text in the “Fold difference” axis marks to the maximum fold difference.
(§6) FIG. 11. Enzymatic activity of three different ligases on the cyclization reaction of P1-Asp peptide 21e-DSL or 21a-DGL and P1-Asn-peptide 21j-NGL. A) Scheme of PAL-mediated P1-Asp peptide cyclization; B) Enzymatic kinetics of VyPAL2 in cyclizing 21e-DSL at pH 4.5; C) Enzymatic kinetics of VyPAL2 in cyclizing 21e-DSL at pH 7.0; D) Enzymatic kinetics of OaAEP1b in cyclizing 21a-DGL at pH 5.5; E) Enzymatic kinetics of Butelase-1 in cyclizing 21e-DSL at pH 4.5. F) Scheme of PAL-mediated cyclization of peptide 21j-NGL; G). Enzymatic kinetics of butelase-1 in cyclizing […] at pH 4.5; H)
(§7) Enzymatic kinetics of VyPAL2 in cyclizing 21j-NSL at pH 4.5; I) Enzymatic kinetics of butelase-1 in cyclizing 21j-NSL at pH 7.4; J) Enzymatic kinetics of OaAEP1b in cyclizing 21j-NSL at pH 7.0. Sequences of peptides used are set forth in SEQ ID Nos. 15, 19, 24.
(§8) PALs recognize a tripeptide motif Asx-P1′-P2′ in the acyl donor substrate for their catalyzed ligation reactions. Because the formation of the acyl-enzyme thioester intermediate is the rate-limiting step, the leaving group P1′-P2′ also plays an important role in determining the catalytic kinetics of a particular 40 PAL-mediated reaction. Previous studies have determined Leu as a preferred P2′ residue. To identify the most favorable P1′ residues for PAL-catalyzed Asp-ligation, a panel of peptides (peptide 21a-21j) with C-terminal DXL and N-terminal GI motifs was synthesized and cyclization reactions performed. Peptide 21j with a C-terminal NGL, a P1-Asn peptide favored by VyPAL2, was used for comparison with the P1-Asp peptides 21a-21i. […] Meanwhile, the P1′ substrate specificities of the two other ligases - Butelase-1 and OaAEP1b - were also evaluated by using the same substrates 21a-21j.
A pH scan experiment with the other two ligases: butelase-1 and OaAEP1 b, for their cyclase activity on 21e and 21j was also conducted. […] In fact, the difference in reaction efficiency between 21j and 21e was about 950 times at pH 7.4 (FIG. 10). […] This makes VyPAL2 a more efficient ligase than butelase-1 for Asp-mediated protein modification.

VyPAL2 [4] = assay: VyPAL2-catalyzed peptide cyclization (substrate screen, pH scan, kinetics); type: biochemical, Viola yedoensis
Protocol: as §4, §5, §6, §7, §8
scanning experiment using the two peptides 21e and 21j was performed. Cyclization reactions were conducted by mixing 5 μM of peptide 21e or 50 μM of 21j with 25 nM of VyPAL2 over a pH range of 4.0 to 7.4. Results confirmed that the optimum pH for the cyclization of the P1-Asn peptide 21j was 6.5-7.4. But for the P1-Asp peptide 21e (which has the C-terminal DSL tripeptide), the optimum pH was 4.0-4.5.
It is worth noting that, at pH 7.4, VyPAL2 processed peptide 21j for cyclization at a rate that is >1000 folds faster than processing peptide 21e (FIG. 10). This enormous difference of reactivity essentially established the orthogonality for ligation at Asn in the presence of aspartyl bonds.

[5] = Butelase-1, cyclization, pH 4.5

Row | Substance | Km (VyPAL2 [1]) | kcat (VyPAL2 [1]) | catalytic activity/efficiency of VyPAL2 relative to butelase-1 towards the substrate (VyPAL2 [1]) | Km (butelase-1 [2]) | kcat (butelase-1 [2]) | further results
1 | GFGGIKA (GFGGIKA-NH2) [Peptide 5] | 424 ± 26 µM | 8.29 ± 0.48 S^−1 | 5 times | 365 ± 3 µM | 1.55 ± 0.01 S^−1 | 
2 | Ac-KKLAVINHV (Ac-KKLAVINHV-NH2) [Peptide 1] | 182 ± 6 µM | 0.17 ± 0.01 S^−1 |  | 85 ± 3 µM | 1.47 ± 0.04 S^−1 | catalytic activity of butelase-1 relative to VyPAL2 towards the substrate (butelase-1 [2]; intermolecular ligation): about 18 times
3 | GISTKSIPPISYRDQL (GISTKSIPPISYRDQL-NH2) [Peptide 21h] |  |  |  |  |  | substrate preference among P1-Asp peptides (butelase-1 [3]; 25 nM butelase-1, 5 μM peptide, pH 4.5, 25° C., 60 min): slight preference
4 | GISTKSIPPISYRDSL (GISTKSIPPISYRDSL-NH2) [Peptide 21e] |  |  |  |  |  | cyclization rate among P1-Asp peptides 21a-21i (VyPAL2 [4]; 25 nM VyPAL2, 5 μM peptide, pH 4.5, 25° C., 60 min): fastest cyclization rate; optimum pH for cyclization (VyPAL2 [4]; 25 nM VyPAL2, pH range 4.0 to 7.4, 5 μM 21e or 50 μM 21j): 4.0-4.5; Km (VyPAL2 [4]; VyPAL2, cyclization, pH 4.5): 25.6 ± 2.6 µM; kcat (VyPAL2 [4]; VyPAL2, cyclization, pH 4.5): 0.28 ± 0.023 s⁻¹; Km (VyPAL2 [4]; VyPAL2, cyclization, pH 7.0): 42.3 ± 2.8 µM; kcat (VyPAL2 [4]; VyPAL2, cyclization, pH 7.0): 0.021 ± 0.001 s⁻¹; Vmax (VyPAL2 [4]; VyPAL2, cyclization, pH 7.4): 0.004 µM/min; Km (butelase-1 [3]; [5]): 16.6 ± 2.3 µM; kcat (butelase-1 [3]; [5]): 0.11 ± 0.01 s⁻¹
5 | Ac-KKLAVINGF (Ac-KKLAVINGF-NH2) [Peptide 7] | 155 ± 15 µM | 1.10 ± 0.03 S^−1 | about 3 times | 175 ± 1 µM | 0.46 ± 0.04 S^−1 | 
